For experiment [1], the target named is T1, thrombin (Bos taurus, UniProt P00735).
T1 construct: purchased
The experiment in a line: Inhibition of thrombin amidase activity (chromogenic substrate N-benzoyl-D-phenylalanyl-L-valyl-L-arginyl-p-nitroanilide). The experiment is classed as biochemical. As for the experimental part: The data in the table were obtained in an assay in which thrombin hydrolyzes the chromogenic substrate, N-benzoyl-D-phenylalanyl-L-valyl-L-arginyl-p-nitroanilide.
The assay was carried out in 50 µl buffer (0.03M Tris, 0.15M NaCl, pH 7.4) with 25 µl of thrombin solution (0.21 mg/ml of thrombostat powder in 0.06 M Tris, 0.3M NaCl, pH 7.4) and 150 µl of an aqueous solution of the chromogenic substrate at a concentration of 0.25 mg/ml. Solutions of test compound (25 µl) at various concentrations were added. […] Standard curves were constructed by plotting free thrombin concentration against hydrolysis rate. […] The amount of free inhibitor in each assay was calculated by subtracting the number of moles of bound thrombin from the number of moles of added inhibitor (test compound).
The Kass value is the hypothetical equilibrium constant for the reaction between thrombin and the test compouhnd (I). Thrombin + I ⇄ Thrombin - I [formula] Kass =([Thrombin I])/([ (Thrombin) x (I) ]) [formula]
Kass was calculated for a range of concentrations of test compounds and the mean value is reported in units of liter per mole.

For experiment [2], the system named is plasma. Description: Plasma coagulation assay: prothrombin time. In kind it is biochemical. The conditions noted are these: thromboplastin (Dade). As for the experimental part: (§1) The numerical values in the table are the concentrations of the test compounds (ng/ml) required to prolong coagulation by 2-fold in the three tests. The thrombin time evaluation was carried out in plasma and separately determined in a buffer system at […].
(§2) The data presented in Table 2 were obtained using a CoaScreener instrument from Tecan, Inc. in the assay protocols listed below. Prothrombin Time: 50 µl plasma 50 µl saline 7 µl test solution 50 µl thromboplastin (Dade) Thrombin Time: 50 µl plasma 50 µl saline 7 µl test compound 50 µl bovine thrombin (2 NIH unit/ml) In the Thrombin Time determined in pH 7.4 buffer fibrinogen was used instead of plasma. APTT: 50 µl plasma 50 µl Actin (Dade) 7 µl test solution 50 µl CaCl2 (0.01M).

Experiment [3] relates to plasma. The experiment in a line: Plasma coagulation assay: activated partial thromboplastin time (APTT). The experiment is classed as biochemical. The settings on record: Actin (Dade), CaCl2. As to the method:
as §1, §2

For experiment [4], the target named is T2, bovine thrombin (Bos taurus, UniProt P00735).
T2 construct: 50 µl bovine thrombin (2 NIH unit/ml)
The experiment in a line: Plasma coagulation assay: thrombin time. The experiment is classed as biochemical. The settings on record: plasma, bovine thrombin (2 NIH unit/ml); for EC (2-fold clotting time): read-out: Thrombin Time: concentration of test compounds required to prolong coagulation by 2-fold. As for the experimental part: as §1, §2

In experiment [5] the target is T2, bovine thrombin. The experiment in a line: Thrombin time in buffer (fibrinogen instead of plasma). The experiment is classed as biochemical. The conditions noted are these: buffer pH 7.5, fibrinogen instead of plasma; for EC (2-fold clotting time): read-out: Buffer (pH 7.5) Thrombin Time: concentration of test compounds required to prolong coagulation by 2-fold. As for the experimental part: as §1, §2

Experiment [6] concerns Arterial Thrombosis in the Rat. Description: FeCl3-induced arterial thrombosis in the carotid artery of the rat. The experiment is classed as in vivo. The settings on record: infusion from 15 min before to 60 min after FeCl3 application, NA = Not active at 4 mg/kg/h or at 7 mg/kg/h, the highest doses tested.
Description: The antithrombotic activity of representative compounds of the invention was determined in in vivo tests carried out in the rat. The test employed induced arterial thrombosis in the carotid artery of the rat and measured the infusion dose of test compound required to maintain blood flow for fifty minutes past the time of occlusion. The test was performed as follows.
Arterial thrombosis was induced in the rat by injury of the carotid artery. Topical application of a ferric chloride solution was used to injure the vessel. […] Animals were laid on a water blanket in which the circulated water was maintained at 37° C. The carotid artery was approached through a midline cervical incision. Careful blunt dissection was used to expose and isolate the vessel from the carotid sheath. A silk suture was pulled underneath the artery to lift the vessel to provide clearance to insert a thermocouple underneath it. […] The discs were cut to equal size using sharpened stainless steel tubing (3 mm i.d.) chucked in a drill press. A saturated disc was placed on each carotid artery above the thermocouple. The time between FeCl3 application and the time at which temperature decreased abruptly was recorded as time to occlusion (TTO) of the vessel. The average time required for both vessels to occlude was used to represent TTO for each animal.
Test compounds were dissolved in isotonic saline. A syringe pump was used to infuse drug solutions starting 15 min before FeCl3 application and continuing for 60 min after FeCl3 application. Dose-response curves were plotted to determine the relationship between the log10 of the infused doses and the TTO of the injured arteries.
The association between vessel occlusion and the abrupt temperature decrease was established by simultaneously recording the temperature and blood flow on the same recorder. A pulsed Doppler flow probe was placed around the carotid artery proximal to the thermocouple. […] Results were reported as percent change from initial baseline values (6 min before occlusion). The time at which vessel temperature decreased rapidly was arbitrarily established as zero and pre- and post-occlusion temperature and flow values were referenced from that point.
Where [7] appears, read: Thrombin Amidase Kass, apparent equilibrium (association) constant, mean over a range of concentrations, pH 7.4, acetate salts unless indicated otherwise.
Setting [8] is: apparent equilibrium (association) constant, mean over a range of concentrations, pH 7.4, acetate salts unless indicated otherwise, read-out: Thrombin Amidase Kass (converted).

This note sets out measurements from EP0837071A1, “Tripeptide antithrombotic agents” (ELI LILLY AND COMPANY, priority 1990, dated 1992).

Several values for one entry are separate records, joined by “and”; a condition that tells them apart may be missing. Equal entries are not always repeated. Structures can show the parent of a compound that is named as a salt. Where two headings read alike, the source gives them in different places. Square brackets hold non-standard residues; d marks the D form. Peptide text beside a SMILES is read from it. * marks the point of attachment. dNMePhg = CN[C@@H](C(=O)O)c1ccccc1; dHpg = N[C@@H](C(=O)O)c1ccc(O)cc1; dChg = N[C@@H](C(=O)O)C1CCCCC1; dPhg = N[C@@H](C(=O)O)c1ccccc1; Boc = CC(C)(C)OC(=O)* Bounds are passed on as bounds.

On to `N=C(N)NCCC[C@@H](C=O)NC(=O)[C@@H]1CCCN1C(=O)C1NCCc2ccccc21` (mixture of isomers), for which the Kd in experiment [1] (setting [7]) is 11.4 nM.

Turning to `CC(C)(C)OC(=O)N1CCc2ccccc2C1C(=O)N1CCC[C@H]1C(=O)N[C@H](C=O)CCCNC(=N)N` (mixture of isomers) [Boc-1,2,3,4-tetrahydroisoquinolin-1-ylcarbonyl-Pro-Arg-H], in experiment [1] (setting [7]), the Kd is 263 nM.

As to `CC(C)(C)OC(=O)NC(C(=O)N1CCC[C@H]1C(=O)N[C@H](C=O)CCCNC(=N)N)c1ccc(Cl)c(Cl)c1` (mixture of isomers) [N-Boc-DL-(3,4-dichloro)phenylglycyl], the Kd in experiment [1] (setting [7]) was 25 nM.

With `CC[C@@H](C(=O)N1CCC[C@H]1C(=O)N[C@H](C=O)CCCNC(=N)N)c1ccccc1` [(R)-α-Ethylphenylacetyl], the “Prothrombin Time: concentration of test compounds required to prolong coagulation by 2-fold” value (“Prothrombin Time: concentration … by 2-fold” for short) in experiment [2] is 700 ng/mL. For the same compound, the Kd in experiment [1] (setting [8]) was 133 nM. In addition, the “APTT: concentration of test compounds required to prolong coagulation by 2-fold” value (“APTT: concentration … by 2-fold” for short) in experiment [3] turned out to be 2275 ng/mL.

Regarding `CO[C@@H](C(=O)N1CCC[C@H]1C(=O)N[C@H](C=O)CCCNC(=N)N)c1ccccc1` [(R)-α-Methoxyphenylacetyl], the “Prothrombin Time: concentration … by 2-fold” value in experiment [2] is above 909 ng/mL. Further, the Kd in experiment [1] (setting [8]) was 238 nM. In experiment [3], the “APTT: concentration … by 2-fold” value is above 909 ng/mL.

`C[C@@H](C(=O)N1CCC[C@H]1C(=O)N[C@H](C=O)CCCNC(=N)N)c1ccccc1` [(R)-α-Methylphenylacetyl]: the Kd in experiment [1] (setting [8]) was 90.9 nM.

For `C[C@H](C(=O)N1CCC[C@H]1C(=O)N[C@H](C=O)CCCNC(=N)N)c1ccccc1` [(S)-α-Methylphenylacetyl], the Kd in experiment [1] (setting [8]) is 5000 nM.

As to `N=C(N)NCCC[C@@H](C=O)NC(=O)[C@@H]1CCCN1C(=O)[C@H](N)c1ccccc1` [D-Phenylglycyl, D-Phg-L-Pro-L-Arg-H] (H-[dPhg]-Pro-Arg-aldehyde), in experiment [2], the “Prothrombin Time: concentration … by 2-fold” value was 91 ng/mL. Further, the “APTT: concentration … by 2-fold” value in experiment [3] was found to be 1139 ng/mL. In addition, the EC (2-fold clotting time) in experiment [4] was determined as 0.091 µg/mL.

In the case of `NC(N)=NCCC[C@@H](C=O)NC(=O)[C@@H]1CCCN1C(=O)[C@H](N)c1ccccc1` [D-Phenylglycyl, D-Phg-L-Pro-L-Arg-H] (H-[dPhg]-Pro-Arg-aldehyde), in experiment [1] (setting [7]), the Kd is 13.3 nM.

Turning to `COc1ccc([C@@H](NC(C)=O)C(=O)N2CCC[C@H]2C(=O)N[C@H](C=O)CCCNC(=N)N)cc1` [N-Acetyl-D-(4-methoxy)phenylglycyl], the “Prothrombin Time: concentration … by 2-fold” value in experiment [2] was 900 ng/mL. Further, the Kd in experiment [1] (setting [7]) was 64.5 nM. Also, the “APTT: concentration … by 2-fold” value in experiment [3] came out at 2600 ng/mL. The EC (2-fold clotting time) in experiment [4] amounted to 0.16 µg/mL.

For `CC(C)(C)OC(=O)N[C@@H](C(=O)N1CCC[C@H]1C(=O)N[C@H](C=O)CCCNC(=N)N)c1ccc2ccccc2c1` [N-Boc-D-2-naphthylglycyl, N-Boc-D-2-naphthylglycyl-Pro-Arg-H diacetate], in experiment [2], the “Prothrombin Time: concentration … by 2-fold” value was found to be 1200 ng/mL. Moreover, the Kd in experiment [1] is 45 nM. The “Buffer (pH 7.5) Thrombin Time: concentration of test compounds required to prolong coagulation by 2-fold” value in experiment [5] turned out to be 142 ng/ml. Besides, the “APTT: concentration … by 2-fold” value in experiment [3] is 1200 ng/mL. Also, in experiment [4], the “Thrombin Time: concentration of test compounds required to prolong coagulation by 2-fold” value was determined as 230 ng/mL.

Turning to `CC(C)(C)OC(=O)N[C@@H](C(=O)N1CCC[C@H]1C(=O)N[C@H](C=O)CCCNC(=N)N)c1cccs1` [N-Boc-D-2-thienyiglycyl], the Kd in experiment [1] (setting [7]) is 71.4 nM.

`CC(C)(C)OC(=O)N[C@@H](C(=O)N1CCC[C@H]1C(=O)N[C@H](C=O)CCCN=C(N)N)c1ccc(O)cc1` [N-Boc-D-(4-hydroxy)phenylglycyl, N-Boc-D-(4-hydroxyphenylglycyl)-Pro-Arg-H diacetate] (Boc-[dHpg]-Pro-Arg-aldehyde): the Kd in experiment [1] (setting [7]) is 8.7 nM.

`CC(C)(C)OC(=O)N[C@@H](C(=O)N1CCC[C@H]1C(=O)N[C@H](C=O)CCCNC(=N)N)c1ccc(O)cc1` [N-Boc-D-(4-hydroxy)phenylglycyl, N-Boc-D-(4-hydroxyphenylglycyl)-Pro-Arg-H diacetate] (Boc-[dHpg]-Pro-Arg-aldehyde): the “Prothrombin Time: concentration … by 2-fold” value in experiment [2] was determined as 1636 ng/mL. Besides, the “APTT: concentration … by 2-fold” value in experiment [3] worked out at 1091 ng/mL. For the same compound, the EC (2-fold clotting time) in experiment [4] is 0.182 µg/mL.

For `COc1ccc([C@@H](NC(=O)OC(C)(C)C)C(=O)N2CCC[C@H]2C(=O)N[C@H](C=O)CCCNC(=N)N)cc1` [N-Boc-D-(4-methoxy)phenylglycyl], the Kd in experiment [1] (setting [7]) is 13.3 nM. In addition, in experiment [3], the “APTT: concentration … by 2-fold” value is 640 ng/mL. The EC (2-fold clotting time) in experiment [4] was found to be 0.08 µg/mL.

`COc1ccc2cc([C@@H](NC(=O)OC(C)(C)C)C(=O)N3CCC[C@H]3C(=O)N[C@H](C=O)CCCNC(=N)N)ccc2c1` [N-Boc-D-(6-methoxy)-2-naphthylglycyl]: in experiment [2], the “Prothrombin Time: concentration … by 2-fold” value came out at 35489 ng/mL. For the same compound, the Kd in experiment [1] (setting [7]) was 164 nM. Further, the EC (2-fold clotting time) came to 0.466 µg/mL in experiment [5] and 0.46 µg/mL in experiment [4]. The “APTT: concentration … by 2-fold” value in experiment [3] was 2239 ng/mL.

As to `CC(C)(C)OC(=O)N[C@@H](C(=O)N1CCC[C@H]1C(=O)N[C@H](C=O)CCCN=C(N)N)C1CCCCC1` [N-Boc-D-cyclohexylglycyl] (Boc-[dChg]-Pro-Arg-aldehyde), the Kd in experiment [1] (setting [7]) is 8.33 nM.

As for `CC(C)(C)OC(=O)N[C@@H](C(=O)N1CCC[C@H]1C(=O)N[C@H](C=O)CCCNC(=N)N)C1CCCCC1` [N-Boc-D-cyclohexylglycyl] (Boc-[dChg]-Pro-Arg-aldehyde), in experiment [6], the “ED50 (infusion dose required to maintain blood flow for 50 min)” value worked out at 11.3 mg/kg/h. Also, the “Prothrombin Time: concentration … by 2-fold” value in experiment [2] was determined as 522 ng/mL. Also, the EC (2-fold clotting time) in experiment [5] was found to be 0.06 µg/mL; in experiment [4] it was 0.079 µg/mL. For the same compound, the “APTT: concentration … by 2-fold” value in experiment [3] came to 748 ng/mL.

With `CC(C)(C)OC(=O)N[C@@H](C(=O)N1CCC[C@H]1C(=O)N[C@H](C=O)CCCN=C(N)N)c1ccccc1` [N-Boc-D-phenylglycyl (sulfate salt), N-Boc-D-Phenylglycyl-L-Prolyl-L-Arginine aldehyde (Boc-D-Phg-Pro-Arg-H) hemisulfate] (Boc-[dPhg]-Pro-Arg-aldehyde), the Kd in experiment [1] (setting [7]) was 9.35 nM.

For the compound `CC(C)(C)OC(=O)N[C@@H](C(=O)N1CCC[C@H]1C(=O)N[C@H](C=O)CCCN=C(N)N)c1ccccc1` [N-Boc-D-phenylglycyl, N-(t-Butyloxycarbonyl)-D-phenylglycyl-L-Prolyl-L-Arginine aldehyde (Boc-D-Phg-Pro-Arg-H) diacetate salt] (Boc-[dPhg]-Pro-Arg-aldehyde), in experiment [1] (setting [7]), the Kd was 11.4 nM and 13.7 nM.

`CN(C(=O)OC(C)(C)C)[C@@H](C(=O)N1CCC[C@H]1C(=O)N[C@H](C=O)CCCNC(=N)N)c1ccccc1` [N-Boc-N-methyl-D-phenylglcyl] (Boc-[dNMePhg]-Pro-Arg-aldehyde): the “Prothrombin Time: concentration … by 2-fold” value in experiment [2] amounted to 300 ng/mL. Besides, the Kd in experiment [1] (setting [7]) was 192 nM. Further, the “APTT: concentration … by 2-fold” value in experiment [3] turned out to be 4545 ng/mL. For the same compound, the EC (2-fold clotting time) in experiment [4] came out at 0.3 µg/mL.

`CN[C@@H](C(=O)N1CCC[C@H]1C(=O)N[C@H](C=O)CCCNC(=N)N)c1ccccc1` [N-Methyl-D-phenylglycyl, N-methyl-D-phenylglycyl-L-prolyl-L-arginine aldehyde] (H-[dNMePhg]-Pro-Arg-aldehyde): the “Prothrombin Time: concentration … by 2-fold” value in experiment [2] worked out at 899 ng/mL. For the same compound, the Kd in experiment [1] (setting [7]) was 10.9 nM. For the same compound, the EC (2-fold clotting time) stood at 0.067 µg/mL in experiment [5] and 0.092 µg/mL in experiment [4]. Moreover, the “APTT: concentration … by 2-fold” value in experiment [3] is above 909 ng/mL.
